Earlier results, collected in US5801147A, “Polypeptides and use thereof” (Takeda Chemical Industries, Ltd., priority 1991, dated 1998).
No end group written: not given here.

Tested on: hypophysis cells
Conditions: prior art

Substance | c-AMP-producing activity (background statement)
PACAP23: polypeptide consisting of 23 amino acid residues on the N-terminal side of PACAP38 (HSDGIFTDSYSRYRKQMAVKKYL; ends and bridges not checked; UniProt P18509 132-154, looked up, fragment) | the same activity as that of PACAP27
PACAP24: polypeptide consisting of 24 amino acid residues on the N-terminal side of PACAP38 (HSDGIFTDSYSRYRKQMAVKKYLA; ends and bridges not checked; UniProt P18509 132-155, looked up, fragment) | the same activity as that of PACAP27
PACAP25: polypeptide consisting of 25 amino acid residues on the N-terminal side of PACAP38 (HSDGIFTDSYSRYRKQMAVKKYLAA; ends and bridges not checked; UniProt P18509 132-156, looked up, fragment) | the same activity as that of PACAP27
PACAP26: polypeptide consisting of 26 amino acid residues on the N-terminal side of PACAP38 (HSDGIFTDSYSRYRKQMAVKKYLAAV; ends and bridges not checked; UniProt P18509 132-157, looked up, fragment) | the same activity as that of PACAP27
PACAP27: a polypeptide consisting of 27 amino acid residues on the N-terminal side of PACAP38 (HSDGIFTDSYSRYRKQMAVKKYLAAVL; ends and bridges not checked; UniProt P18509 132-158, looked up) | The activity of PACAP38 has also been found
PACAP38: polypeptide consisting of 38 amino acid residues, discovered in humans, sheep and rats (SEQ ID NO:1) (HSDGIFTDSYSRYRKQMAVKKYLAAVLGKRYKQRVKNK; ends and bridges not checked) | enhances the production of intracellular c-AMP in hypophysis cells
